The source made the active and inactive calls. The calls are words filed in the database; no cut-off is given here.
Legend:
[1] = Antiproliferative activity against human MCF7 cells after 48 hrs by MTT assay; assay type: functional, cell-based; conditions: MCF7, 48 h
[2] = Antiproliferative activity against human MDA-MB-231 cells after 48 hrs by MTT assay; assay type: functional, cell-based; conditions: MDA-MB-231, 48 h
[3] = Antiproliferative activity against human mammary epithelial cells after 48 hrs by MTT assay; assay type: cell-based, Epithelial cell; conditions: Homo sapiens, Epithelial cell, 48 h; read-out: IC50
MCF7 [4] = test: Induction of apoptosis in human MCF7 cells assessed as early apoptotic cells at 5 uM after 24 hrs by Annexin V-FITC/propidium iodide staining based flow cytometry (reference value: 1.6%); assay type: functional
MCF7 [5] = test: Induction of apoptosis in human MCF7 cells assessed as late apoptotic cells at 5 uM after 24 hrs by Annexin V-FITC/propidium iodide staining based flow cytometry (reference value: 2.3%); assay type: functional
MCF7 [6] = test: Induction of apoptosis in human MCF7 cells assessed as necrotic cells at 5 uM after 24 hrs by Annexin V-FITC/propidium iodide staining based flow cytometry (reference value: 3.7%); assay type: functional
MDA-MB-231 [7] = test: Induction of apoptosis in human MDA-MB-231 cells assessed as early apoptotic cells at 5 uM after 24 hrs by Annexin V-FITC/propidium iodide staining based flow cytometry (reference value: 0.5%); assay type: functional
MDA-MB-231 [8] = test: Induction of apoptosis in human MDA-MB-231 cells assessed as late apoptotic cells at 5 uM after 24 hrs by Annexin V-FITC/propidium iodide staining based flow cytometry (reference value: 1.8%); assay type: functional
MDA-MB-231 [9] = test: Induction of apoptosis in human MDA-MB-231 cells assessed as necrotic cells at 5 uM after 24 hrs by Annexin V-FITC/propidium iodide staining based flow cytometry (reference value: 1.3%); assay type: functional
MDA-MB-231 [10] = test: Effect on p53 gene expression in human MDA-MB-231 cells assessed as ratio of p53 to beta-actin expression level at 5 uM after 24 hrs by RT-PCR method (reference value: 0.22); assay type: functional
MDA-MB-231 [11] = test: Effect on Bid gene expression in human MDA-MB-231 cells assessed as ratio of Bid to beta-actin expression level at 5 uM after 24 hrs by RT-PCR method (reference value: 0.17); assay type: functional
MDA-MB-231 [12] = test: Ratio of Bcl-2 to Bax gene expression in human MDA-MB-231 cells at 5 uM after 24 hrs by RT-PCR method (reference value: 0.03); assay type: functional
[13] = Cell cycle arrest in human MCF7 cells assessed as accumulation at sub-G1 phase at 5 uM after 24 hrs by propidium iodide staining based flow cytometry (reference value: 3.58%); assay type: functional
[14] = Cell cycle arrest in human MCF7 cells assessed as accumulation at G0/G1 phase at 5 uM after 24 hrs by propidium iodide staining based flow cytometry (reference value: 83.25%); assay type: functional
[15] = Cell cycle arrest in human MCF7 cells assessed as accumulation at S phase at 5 uM after 24 hrs by propidium iodide staining based flow cytometry (reference value: 4.23%); assay type: functional
[16] = Cell cycle arrest in human MCF7 cells assessed as accumulation at G2/M phase at 5 uM after 24 hrs by propidium iodide staining based flow cytometry (reference value: 9.29%); assay type: functional
MDA-MB-231 [17] = test: Effect on cyclin D1 mRNA expression in human MDA-MB-231 cells assessed as ratio of cyclin D1 to GAPDH expression level at 5 uM after 24 hrs by RT-PCR method (reference value: 0.71); assay type: functional
MDA-MB-231 [18] = test: Effect on cyclin E mRNA expression in human MDA-MB-231 cells assessed as ratio of cyclin E to GAPDH expression level at 5 uM after 24 hrs by RT-PCR method (reference value: 0.13); assay type: functional
MDA-MB-231 [19] = test: Effect on Cdk2 mRNA expression in human MDA-MB-231 cells assessed as ratio of Cdk2 to GAPDH expression level at 5 uM after 24 hrs by RT-PCR method (reference value: 0.26); assay type: functional
MDA-MB-231 [20] = test: Effect on Cdk6 mRNA expression in human MDA-MB-231 cells assessed as ratio of Cdk6 to GAPDH expression level at 5 uM after 24 hrs by RT-PCR method (reference value: 1.37); assay type: functional
MDA-MB-231 [21] = test: Effect on p21 mRNA expression in human MDA-MB-231 cells assessed as ratio of p21 to GAPDH expression level at 5 uM after 24 hrs by RT-PCR method (reference value: 0.02); assay type: functional
MDA-MB-231 [22] = test: Effect on p27 mRNA expression in human MDA-MB-231 cells assessed as ratio of p27 to GAPDH expression level at 5 uM after 24 hrs by RT-PCR method (reference value: 0.23); assay type: functional
Homo sapiens [23] = species: Homo sapiens; test: Inhibition of Akt in human MDA-MB-231 cells assessed as ratio of phosphorylated Akt to GAPDH expression level at 5 uM after 48 hrs by immunoblot analysis (reference value: 0.33 to 0.81); assay type: cell-based
Homo sapiens [24] = species: Homo sapiens; test: Inhibition of Akt in human MDA-MB-231 cells assessed as ratio of phosphorylated GSK-3beta to GAPDH expression level at 5 uM after 48 hrs by immunoblot analysis (reference value: 0.14 to 1.50); assay type: cell-based
[25] = Cell cycle arrest in human MDA-MB-231 cells assessed as increase in cell accumulation at G2/M phase at 5 uM after 24 hrs by propidium iodide staining based flow cytometry; assay type: functional
[26] = Safety index, ratio of compound IC50 to colchicine IC50 for human mammary epithelial cells; assay type: ADME, cell-based, Epithelial cell; conditions: read-out: Ratio IC50
MCF7 [27] = test: Induction of apoptosis in human MCF7 cells assessed as increase in necrotic cells at 5 uM after 24 hrs by Annexin V-FITC/propidium iodide staining based flow cytometry relative to colchicine; assay type: functional
[28] = Cell cycle arrest in human MDA-MB-231 cells assessed as increase in cell accumulation at sub-G1 phase at 5 uM after 24 hrs by propidium iodide staining based flow cytometry; assay type: functional
MDA-MB-231 [29] = test: Inhibition of Akt in human MDA-MB-231 cells assessed as reduction in GSK-3beta phosphorylation after 48 hrs by immunoblot analysis; assay type: cell-based
MDA-MB-231 [30] = test: Inhibition of Akt phosphorylation in human MDA-MB-231 cells after 48 hrs by immunoblot analysis; assay type: cell-based
MCF7 [31] = test: Inhibition of Akt phosphorylation in human MCF7 cells after 48 hrs by immunoblot analysis; assay type: cell-based
MCF7 [32] = test: Inhibition of Akt in human MCF7 cells assessed as GSK-3beta phosphorylation reduction in after 48 hrs by immunoblot analysis; assay type: cell-based
Homo sapiens [33] = species: Homo sapiens; test: Inhibition of Akt in human MDA-MB-231 cells assessed as ratio of phosphorylated Akt to GAPDH expression level at 2 uM after 48 hrs by immunoblot analysis (reference value: 0.33 to 0.81); assay type: cell-based
Homo sapiens [34] = species: Homo sapiens; test: Inhibition of Akt in human MDA-MB-231 cells assessed as ratio of phosphorylated Akt to GAPDH expression level at 10 uM after 48 hrs by immunoblot analysis (reference value: 0.33 to 0.81); assay type: cell-based
Homo sapiens [35] = species: Homo sapiens; test: Inhibition of Akt in human MDA-MB-231 cells assessed as ratio of phosphorylated GSK-3beta to GAPDH expression level at 2 uM after 48 hrs by immunoblot analysis (reference value: 0.14 to 1.50); assay type: cell-based
Homo sapiens [36] = species: Homo sapiens; test: Inhibition of Akt in human MDA-MB-231 cells assessed as ratio of phosphorylated GSK-3beta to GAPDH expression level at 10 uM after 48 hrs by immunoblot analysis (reference value: 0.14 to 1.50); assay type: cell-based
MDA-MB-231 [37] = test: Inhibition of Akt in human MDA-MB-231 cells after 48 hrs by ELISA; assay type: cell-based

Row | SMILES | IC50 [1] | IC50 [2] | IC50 [3] | Activity (MCF7 [4]) | Activity (MCF7 [5]) | Activity (MCF7 [6]) | Activity (MDA-MB-231 [7]) | Activity (MDA-MB-231 [8]) | Activity (MDA-MB-231 [9]) | Ratio (MDA-MB-231 [10]) | Ratio (MDA-MB-231 [11]) | Ratio (MDA-MB-231 [12]) | Activity [13] | Activity [14] | Activity [15] | Activity [16] | Ratio (MDA-MB-231 [17]) | Ratio (MDA-MB-231 [18]) | Ratio (MDA-MB-231 [19]) | Ratio (MDA-MB-231 [20]) | other results
1 | COc1cc2c(c(OC)c1OC)-c1ccc(OC)c(=O)cc1[C@@H](NC(C)=O)CC2 [COLCHICINE] | 0.072 µM | 3.55 µM | 9.26 µM | 1% | 1.8% | 6.5% | 2.3% | 5.8% | 0.9% | 0.3 | 0.42 | 0.1 | 7.4% | 66.2% | 10.3% | 16.2% | 1.5 | 0.19 | 0.39 | 1.56 | Ratio (MDA-MB-231 [21]): 0.6; Ratio (MDA-MB-231 [22]): 0.6; Ratio (Homo sapiens [23]): 0.23 to 0.44; Ratio (Homo sapiens [24]): 0.12 to 1.45; Activity [25]: Active
2 | CCOC(=O)/C(=C/c1ccccc1)CN1C(=O)[C@@H](OC)[C@H]1c1ccccc1Br | 5.79 µM | 6.86 µM | 66.6 µM | 4% | 6.7% | 13.1% | 2.2% | 5.4% | 0.9% | 0.25 | 0.56 | 0.01 | 12.9% | 71.2% | 5.17% | 9.11% | 0.47 | 0.03 | 0.18 | 0.19 | selectivity ratio [26]: 10; fold change (FC) (MCF7 [27]): 2; Activity [28]: Active; Ratio (MDA-MB-231 [21]): 0.03; Ratio (MDA-MB-231 [22]): 0.41; inhibition (MDA-MB-231 [29]): Dose-dependent effect; inhibition (MDA-MB-231 [30]): Dose-dependent effect; inhibition (MCF7 [31]): Dose-dependent effect; inhibition (MCF7 [32]): Dose-dependent effect; Ratio (Homo sapiens [23]): 0.03; Ratio (Homo sapiens [33]): 0.16; Ratio (Homo sapiens [34]): 0.01; Ratio (Homo sapiens [24]): 0.61; Ratio (Homo sapiens [35]): 1.16; Ratio (Homo sapiens [36]): 0.58; inhibition (MDA-MB-231 [37]): Dose-dependent effect
